Measured values: PubChem BioAssay AID1845194 (Molecular Pharmacology Branch, DTP, NCI, 2023)

Test system: 287954-098-R-J1 tumor spheroid viability
Test: Anticancer human tumor 287954-098-R-J1 patient-derived Ewing sarcoma cell line growth inhibition
Settings: spheroids with HUVEC and MSC; for IC50: curve of first compound; for viability, T/C: stronger effect = lower value
In short: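 Single agents and combinations were tested on spheroids built from tumor cells plus HUVEC and hMSC, at half-log dilutions starting at or near clinical Cmax, else 10 microM; final DMSO 0.25% (v/v).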
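Further: spheroids exposed to compound for 7 days before viability readout.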
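Wherever viability, T/C is given: luminescent signal taken as surrogate of viable cell content; 100% = DMSO vehicle control viability and lower means growth inhibition.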

## CNCc1ccc(-c2cc(-c3nc(-c4ccc(S(=O)(=O)C(C)C)cc4)cnc3N)on2)cc1 + CC[C@@]1(O)C(=O)OCc2c1cc1n(c2=O)Cc2cc3c(CN(C)C)c(O)ccc3nc2-1
Second compound 0.003 µM
  IC50: 0.198 µM
Second compound 0.00949 µM
  IC50: 0.158 µM
Second compound 0.03 µM
  IC50: < 0.00949 µM
Second compound 0.0949 µM
  IC50: < 0.00949 µM
Second compound 0.3 µM
  IC50: < 0.00949 µM
Second compound 0.003 µM, first compound 0.00949 µM
  viability, T/C: 109%
Second compound 0.003 µM, first compound 0.03 µM
  viability, T/C: 93.4%
Second compound 0.003 µM, first compound 0.0949 µM
  viability, T/C: 108%
Second compound 0.003 µM, first compound 0.3 µM
  viability, T/C: 19.7%
Second compound 0.003 µM, first compound 0.949 µM
  viability, T/C: 0.19%
Second compound 0.003 µM, first compound 3 µM
  viability, T/C: 0.31%
Second compound 0.00949 µM, first compound 0.00949 µM
  viability, T/C: 103%
Second compound 0.00949 µM, first compound 0.03 µM
  viability, T/C: 114%
Second compound 0.00949 µM, first compound 0.0949 µM
  viability, T/C: 89.3%
Second compound 0.00949 µM, first compound 0.3 µM
  viability, T/C: 0.67%
Second compound 0.00949 µM, first compound 0.949 µM
  viability, T/C: 0.1%
Second compound 0.00949 µM, first compound 3 µM
  viability, T/C: 0.26%
Second compound 0.03 µM, first compound 0.00949 µM
  viability, T/C: 19.1%
Second compound 0.03 µM, first compound 0.03 µM
  viability, T/C: 3.38%
Second compound 0.03 µM, first compound 0.0949 µM
  viability, T/C: 2.05%
Second compound 0.03 µM, first compound 0.3 µM
  viability, T/C: 0.64%
Second compound 0.03 µM, first compound 0.949 µM
  viability, T/C: 0.05%
Second compound 0.03 µM, first compound 3 µM
  viability, T/C: 0.26%
Second compound 0.0949 µM, first compound 0.00949 µM
  viability, T/C: 2.1%
Second compound 0.0949 µM, first compound 0.03 µM
  viability, T/C: 2.08%
Second compound 0.0949 µM, first compound 0.0949 µM
  viability, T/C: 2.28%
Second compound 0.0949 µM, first compound 0.3 µM
  viability, T/C: 0.97%
Second compound 0.0949 µM, first compound 0.949 µM
  viability, T/C: 0.06%
Second compound 0.0949 µM, first compound 3 µM
  viability, T/C: 0.3%
Second compound 0.3 µM, first compound 0.00949 µM
  viability, T/C: 2.14%
Second compound 0.3 µM, first compound 0.03 µM
  viability, T/C: 2.11%
Second compound 0.3 µM, first compound 0.0949 µM
  viability, T/C: 2.27%
Second compound 0.3 µM, first compound 0.3 µM
  viability, T/C: 1.94%
Second compound 0.3 µM, first compound 0.949 µM
  viability, T/C: 0.24%
Second compound 0.3 µM, first compound 3 µM
  viability, T/C: 0.43%

## [2H]c1nc(C)nc([2H])c1-c1cc(NC[C@@H](C)c2cccc3c(C(=O)NC)ccnc23)ncn1 + Cn1nnc2c(C(N)=O)ncn2c1=O
Second compound 1 µM
  IC50: > 10 µM
Second compound 3.16 µM
  IC50: > 10 µM
Second compound 10 µM
  IC50: > 10 µM
Second compound 31.6 µM
  IC50: > 10 µM
Second compound 100 µM
  IC50: > 10 µM
Second compound 1 µM, first compound 0.0316 µM
  viability, T/C: 104%
Second compound 1 µM, first compound 0.1 µM
  viability, T/C: 103%
Second compound 1 µM, first compound 0.316 µM
  viability, T/C: 106%
Second compound 1 µM, first compound 1 µM
  viability, T/C: 97.6%
Second compound 1 µM, first compound 3.16 µM
  viability, T/C: 99.5%
Second compound 1 µM, first compound 10 µM
  viability, T/C: 101%
Second compound 3.16 µM, first compound 0.0316 µM
  viability, T/C: 106%
Second compound 3.16 µM, first compound 0.1 µM
  viability, T/C: 93.9%
Second compound 3.16 µM, first compound 0.316 µM
  viability, T/C: 99.3%
Second compound 3.16 µM, first compound 1 µM
  viability, T/C: 106%
Second compound 3.16 µM, first compound 3.16 µM
  viability, T/C: 107%
Second compound 3.16 µM, first compound 10 µM
  viability, T/C: 99.3%
Second compound 10 µM, first compound 0.0316 µM
  viability, T/C: 101%
Second compound 10 µM, first compound 0.1 µM
  viability, T/C: 100%
Second compound 10 µM, first compound 0.316 µM
  viability, T/C: 99.7%
Second compound 10 µM, first compound 1 µM
  viability, T/C: 104%
Second compound 10 µM, first compound 3.16 µM
  viability, T/C: 103%
Second compound 10 µM, first compound 10 µM
  viability, T/C: 105%
Second compound 31.6 µM, first compound 0.0316 µM
  viability, T/C: 106%
Second compound 31.6 µM, first compound 0.1 µM
  viability, T/C: 103%
Second compound 31.6 µM, first compound 0.316 µM
  viability, T/C: 102%
Second compound 31.6 µM, first compound 1 µM
  viability, T/C: 103%
Second compound 31.6 µM, first compound 3.16 µM
  viability, T/C: 98.8%
Second compound 31.6 µM, first compound 10 µM
  viability, T/C: 106%
Second compound 100 µM, first compound 0.0316 µM
  viability, T/C: 99.7%
Second compound 100 µM, first compound 0.1 µM
  viability, T/C: 103%
Second compound 100 µM, first compound 0.316 µM
  viability, T/C: 97.7%
Second compound 100 µM, first compound 1 µM
  viability, T/C: 98.2%
Second compound 100 µM, first compound 3.16 µM
  viability, T/C: 97.6%
Second compound 100 µM, first compound 10 µM
  viability, T/C: 94.4%
